How the values were obtained:
MGC-803 cells = test: MTT antiproliferative assay, MGC-803 cells; type: cell-based, human; conditions: exposure for 48 h
Method: (§1) The in vitro antiproliferative activities of new target compounds 6a–6g, 9a–9i, 10a–10j, 11a–11j, and 14a–14d were evaluated against four human cancer cell lines (MGC-803, PC-3, HCT-116, and MCF-7) using MTT assay and 5-FU as a positive drug. The following Tables 1–[4] depicted the results of in vitro antiproliferative activity.
(§2) Cell lines used were cultured in humidified incubator in a humidified atmosphere of 5% CO2 and 95% air. The RPMI-1640 medium was supplemented with 10% foetal bovine serum, penicillin (100 U/ml) and streptomycin (0.1 mg/ml).
(§3) Cell lines were seeded into 96-well plates and incubated for 24 h. Then cells were treated with different concentrations of compounds. And after another 48 h, MTT reagent (20 μL per well) was added to each well and then incubated at 37 °C for 4 h. After the suspension was discarded, formazan was then dissolved with DMSO. Absorbencies of formazan solution were measured at 490 nm. The IC50 values of tested compounds were calculated by SPSS version 17.0.

MCF-7 cells = test: MTT antiproliferative assay, MCF-7 cells; type: cell-based, human; conditions: Homo sapiens, MCF7, 48 h, exposure for 48 h
Method: as §1, §2, §3

PC-3 cells = test: MTT antiproliferative assay, PC-3 cells; type: cell-based, human; conditions: Homo sapiens, PC-3, exposure for 48 h
Method: as §1, §2, §3

HCT-116 cells = test: MTT antiproliferative assay, HCT-116 cells; type: cell-based, human; conditions: Homo sapiens, HCT-116, 48 h, exposure for 48 h
Method: as §1, §2, §3

SMILES	melting point	IC50 (MGC-803 cells; Homo sapiens, MGC-803, 48 h)	IC50 (MCF-7 cells)	IC50 (PC-3 cells)	IC50 (HCT-116 cells)	IC50 (MGC-803 cells)
COc1ccc(CN(c2cc(OC)c(OC)c(OC)c2)S(=O)(=O)c2cccnc2)cc1 [Compound 6g, N-(4-methoxybenzyl)-N-(3,4,5-trimethoxyphenyl) pyridine-3-sulphonamide]	162 to 163 °C	38.2 ± 1.55 µM	> 40 µM	16.9 ± 1.58 µM	> 40 µM	
COc1ccc(CN(c2cc(OC)c(OC)c(OC)c2)S(=O)(=O)c2ccc(C)cc2)cc1 [Compound 6c]		4.32 ± 0.65 µM	11.2 ± 1.02 µM	8.81 ± 0.98 µM	6.18 ± 0.61 µM	
COc1cc(N(Cc2nc(C)c3ccccc3n2)S(=O)(=O)c2ccc(Br)cc2)cc(OC)c1OC [Compound 10c, 4-Bromo-N-((4-methylquinazolin-2-yl)methyl)-N-(3,4,5-trimethoxyphenyl) benzene-sulfonamide]	170 to 171 °C	0.82 ± 0.11 µM	1.4 ± 0.25 µM	1.81 ± 0.26 µM	1.49 ± 0.22 µM	
COc1cc(N(Cc2nc(C)c3ccccc3n2)S(=O)(=O)c2ccccc2)cc(OC)c1OC [Compound 10a, N-((4-methylquinazolin-2-yl)methyl)-N-(3,4,5-trimethoxyphenyl) benzene-sulphonamide]	178 to 179 °C	6.62 ± 0.82 µM	> 50 µM	28.2 ± 2.12 µM	16.7 ± 1.03 µM	
COc1ccc(S(=O)(=O)N(Cc2c(C)noc2C)c2cc(OC)c(OC)c(OC)c2)cc1 [Compound 9h, N-((3,5-dimethylisoxazol-4-yl)methyl)-4-methoxy-N-(3,4,5-trimethoxyphenyl) benzene-sulfonamide]		5.48 ± 0.58 µM	11.5 ± 1.03 µM	8.28 ± 3.4 µM	12.1 ± 0.85 µM	
COc1cc(N(Cc2nc(C)c3ccccc3n2)C(=O)c2ccc(Br)cc2)cc(OC)c1OC [Compound 11c, 4-Bromo-N-((4-methylquinazolin-2-yl)methyl)-N-(3,4,5-trimethoxyphenyl) benzamide]	182 to 183 °C	13.6 ± 1.24 µM	28.1 ± 1.47 µM	26.8 ± 1.32 µM	20.4 ± 1.23 µM	
COc1ccc(CN(c2cc(OC)c(OC)c(OC)c2)S(=O)(=O)c2ccc(F)cc2)cc1 [Compound 6a, 4-Fluoro-N-(4-methoxybenzyl)-N-(3,4,5-trimethoxyphenyl) benzene-sulphonamide]	156 to 157 °C	6.62 ± 0.82 µM	> 40 µM	18.8 ± 0.31 µM	16.7 ± 1.03 µM	
COc1cc(N(Cc2nc(C)c3ccccc3n2)S(=O)(=O)c2ccc(F)cc2)cc(OC)c1OC [Compound 10b, 4-Fluoro-N-((4-methylquinazolin-2-yl)methyl)-N-(3,4,5-trimethoxyphenyl) benzene-sulfonamide]	162 to 163 °C	0.92 ± 1.07 µM	5.46 ± 0.87 µM	4.72 ± 1.02 µM	3.84 ± 0.14 µM	
COc1cc(N(Cc2nc(C)c3ccccc3n2)C(=O)c2cccs2)cc(OC)c1OC [Compound 11j, N-((4-methylquinazolin-2-yl)methyl)-N-(3,4,5-trimethoxyphenyl)thiophene-2-carboxamide]	136 to 137 °C	14.7 ± 1.88 µM	> 40 µM	> 40 µM	24.8 ± 2.13 µM	
COc1cc(N(Cc2nc(C)c3ccccc3n2)S(=O)(=O)c2ccc(C(C)(C)C)cc2)cc(OC)c1OC [Compound 10g, 4-(Tert-butyl)-N-((4-methylquinazolin-2-yl)methyl)-N-(3,4,5-trimethoxyphenyl) benzene-sulfonamide]	144 to 145 °C	12.8 ± 1.38 µM	28.1 ± 1.82 µM	18.9 ± 1.57 µM	22.4 ± 1.67 µM	
COc1cc(N(Cc2nc(C)c3ccccc3n2)S(=O)(=O)c2c(C)cc(C)cc2C)cc(OC)c1OC [Compound 10f, 2,4,6-Trimethyl-N-((4-methylquinazolin-2-yl)methyl)-N-(3,4,5-trimethoxyphenyl) benzene-sulfonamide]	154 to 155 °C	> 50 µM	> 50 µM	> 50 µM	> 50 µM	
COc1cc(C(=O)N(Cc2nc(C)c3ccccc3n2)c2cc(OC)c(OC)c(OC)c2)cc(OC)c1OC [Compound 11i, 3,4,5-Trimethoxy-N-((4-methylquinazolin-2-yl)methyl)-N-(3,4,5-trimethoxyphenyl) benzamide]	129 to 130 °C	16.8 ± 2.02 µM	> 40 µM	> 40 µM	20.4 ± 1.92 µM	
COc1cc(N(Cc2nc(C)c3ccccc3n2)C(=O)c2ccc(F)cc2)cc(OC)c1OC [Compound 11b, 4-Fluoro-N-((4-methylquinazolin-2-yl)methyl)-N-(3,4,5-trimethoxyphenyl) benzamide]	162 to 163 °C	14.1 ± 1.01 µM	29.7 ± 1.83 µM	31.1 ± 2.04 µM	18.9 ± 1.23 µM	
COc1ccc(S(=O)(=O)N(Cc2ccc(Br)cc2)c2cc(OC)c(OC)c(OC)c2)cc1 [Compound 9c, N-(4-bromobenzyl)-4-methoxy-N-(3,4,5-trimethoxyphenyl) benzene-sulphonamide]	187 to 188 °C	31.1 ± 0.79 µM	33.8 ± 1.39 µM	28 ± 2.76 µM	> 50 µM	
COc1ccc(S(=O)(=O)N(Cc2nc(C)c3ccccc3n2)c2ccc(C)cc2)cc1 [Compound 14d, 4-Methoxy-N-((4-methylquinazolin-2-yl)methyl)-N-(p-tolyl)benzene-sulphonamide]	129 to 130 °C	42.2 ± 2.44 µM	> 50 µM	45.7 ± 2.88 µM	> 50 µM	
COc1cc(N(Cc2nc(C)c3ccccc3n2)S(=O)(=O)c2ccccn2)cc(OC)c1OC [Compound 10j, N-((4-Methylquinazolin-2-yl)methyl)-N-(3,4,5-trimethoxyphenyl)pyridine-2-sulphonamide]	159 to 160 °C	14.7 ± 1.88 µM	34.2 ± 1.83 µM	28.2 ± 1.98 µM	24.8 ± 2.13 µM	
COc1ccc(S(=O)(=O)N(Cc2ccc(OC)c(OC)c2)c2cc(OC)c(OC)c(OC)c2)cc1 [Compound 9e, N-(3,4-dimethoxybenzyl)-4-methoxy-N-(3,4,5-trimethoxyphenyl) benzene-sulphonamide]	136 to 137 °C	7.92 ± 2.26 µM	22.9 ± 1.82 µM	10.2 ± 0.52 µM	8.6 ± 2.85 µM	
COc1ccc(S(=O)(=O)N(Cc2ccccc2)c2cc(OC)c(OC)c(OC)c2)cc1 [Compound 9a, N-benzyl-4-methoxy-N-(3,4,5-trimethoxyphenyl) benzene-sulfonamide]	161 to 162 °C	8.57 ± 1.62 µM	24.5 ± 0.61 µM	16.2 ± 1.06 µM	18.8 ± 1.72 µM	
COc1cc(N(Cc2nc(C)c3ccccc3n2)S(=O)(=O)c2ccc(C)cc2)cc(OC)c1OC [Compound 10e, 4-Methyl-N-((4-methylquinazolin-2-yl)methyl)-N-(3,4,5-trimethoxyphenyl) benzene-sulfonamide]	182 to 183 °C	1.04 µM	1.68 ± 0.12 µM	4.01 ± 0.07 µM	2.48 ± 0.12 µM	1 ± 0.08 µM
COc1cc(N(Cc2nc(C)c3ccccc3n2)C(=O)c2ccccc2)cc(OC)c1OC [Compound 11a, N-((4-Methylquinazolin-2-yl)methyl)-N-(3,4,5-trimethoxyphenyl) benzamide]	112 to 113 °C	18.5 ± 1.17 µM	25.3 ± 1.78 µM	25.3 ± 1.78 µM	19.8 ± 1.49 µM	
COc1ccc(C(=O)N(Cc2nc(C)c3ccccc3n2)c2cc(OC)c(OC)c(OC)c2)cc1 [Compound 11h, 4-Methoxy-N-((4-methylquinazolin-2-yl)methyl)-N-(3,4,5-trimethoxyphenyl) benzamide]		5.82 ± 1.17 µM	22.4 ± 1.54 µM	18.7 ± 1.38 µM	10.4 ± 1.04 µM	
COc1ccc(S(=O)(=O)N(Cc2cccnc2)c2cc(OC)c(OC)c(OC)c2)cc1 [Compound 9f, 4-Methoxy-N-(pyridin-3-ylmethyl)-N-(3,4,5-trimethoxyphenyl) benzene-sulphonamide]	158 to 159 °C	1.31 ± 0.08 µM	6.31 ± 1.11 µM	11.3 ± 1.11 µM	6.92 ± 0.79 µM	
COc1ccc(CN(c2cc(OC)c(OC)c(OC)c2)S(=O)(=O)c2ccc(OC)cc2)cc1 [Compound 6e, 4-Methoxy-N-(4-methoxybenzyl)-N-(3,4,5-trimethoxyphenyl) benzene-sulphonamide]	179 to 180 °C	2.86 ± 1.08 µM	7.68 ± 1.82 µM	4.01 ± 1.67 µM	3.48 ± 1.22 µM	
COc1cc(N(Cc2nc(C)c3ccccc3n2)C(=O)c2ccc(C)cc2)cc(OC)c1OC [Compound 11e, 4-Methyl-N-((4-methylquinazolin-2-yl)methyl)-N-(3,4,5-trimethoxyphenyl) benzamide]	196 to 197 °C	10.8 ± 1.18 µM	18.6 ± 1.32 µM	24.9 ± 1.41 µM		
COc1ccc(CN(c2cc(OC)c(OC)c(OC)c2)S(=O)(=O)c2cccs2)cc1 [Compound 6f, N-(4-methoxybenzyl)-N-(3,4,5-trimethoxyphenyl) thiophene-2-sulphonamide]		28.3 ± 2.86 µM	26.1 ± 1.87 µM	38.7 ± 2.87 µM	38.1 ± 2.64 µM	
COc1ccc(CN(c2cc(OC)c(OC)c(OC)c2)S(=O)(=O)c2ccccc2)cc1 [Compound 6d]		> 40 µM	> 40 µM	> 40 µM	> 40 µM	

From paper PMC8386742, “Discovery of N-aryl sulphonamide-quinazoline derivatives as anti-gastric cancer agents in vitro and in vivo via activating the Hippo signalling pathway” (Journal of Enzyme Inhibition and Medicinal Chemistry, 2021)
